Source: patent US20100298348A1, “Method of Decreasing Ubiquitylated Protein Levels” (priority 2009, published 2010)
Like-named read-outs stand apart in the source and are kept apart here.

Columns and labels:
3xTg-AD mice = experiment: Morris Water Maze in 3xTg-AD mice; assay type: in vivo, mouse; settings: 2 months; for Morris Water Maze crosses over former platform location, retention testing / Morris Water Maze latency, retention testing: 3xTg-AD mice, 5 mg/kg/day
Method: 3xTg-AD mice of approximately one year of age were treated for 2 months with ST101. An average dose of 5 mg/kg/day was administered in drinking water (calculated dose, based on mean water consumption). Behavioral effects were tested by assessing performance on the Morris Water Maze. Biochemical effects were examined by measuring brain content of Aβ and APP by ELISA and Western Blot.
Behavioral Effects: Performance of 3xTg-AD Mice in the Morris Water Maze (MWM), adapted from Roozendaal et al., Proc. Natl. Acad. Sci. U.S.A. 100: 1328-1333 (2003).
The MWM tests both spatial memory (i.e. hippocampus dependent) and cued learning (i.e. non-hippocampal) in rodents. The maze is a circular tank filled with opaque water. Mice are placed in the water and must swim to find and escape onto a platform submerged 1.5 cm beneath the surface of the water. The time (in seconds) required to find the platform is recorded. Animals rely on visual cues in the room containing the tank in order to find the platform on successive challenges. Training was conducted daily for seven consecutive days.
Retention of training was assessed twice, 24 and 72 hours after the final training trial. Animals were subjected to a 60-second free swim in the tank with the platform removed. Parameters measured included (1) latency: time required to reach the former platform location and (2) crosses: the number of times the animal swam across the former platform location.

sAPP-beta = experiment: Western blot of sAPP-beta in 3xTg-AD mouse brain; assay type: in vivo; settings: 3xTg-AD mice ~14.5 months old, 5 mg/kg/day in drinking water, 2 months as printed
Method: FIG. 10B describes a reduction of fragment C99. C99 is created by BACE cleavage which leads to release of soluble APP, specifically sAPP-beta. […] The Western blot was obtained using an sAPP-beta specific antibody in brain extracts from ST101 treated 3×TG-AD mice (S) versus control mice (C). Animals were approximately 14.5 months old at sacrifice after 2 months of treatment with ST101 at 5 mg/kg/day in drinking water.

BACE1 = experiment: Western blot of BACE in 3xTg-AD mouse brain; assay type: in vivo; settings: 3xTg-AD mice ~12 months old, 5 mg/kg/day, 2 months
Method: (§1) APP C-terminal fragments C99 and C83 are created by beta-secretase and alpha-secretase cleavage respectively. The reduction of both C99 and C83 induced by ST101 could therefore be due to reduction or inhibition of secretases. This hypothesis was tested using Western blots of brain extracts from 3xTg-AD mice from the initial experiment in 12-month-old animals treated with ST101 for 2 months. The only beta-secretase is BACE1 and the constitutive alpha-secretase is ADAM10.
(§2) Western blots were probed with antibodies against BACE1 and ADAM10. FIG. 11A is a series of Western blots depicting levels of proADAM10, ADAM10, proBACE, BACE, Presenilinl and APP-CFTs in brain extracts from ST101 treated 3×TG-AD mice (S) versus control mice (C). C: control brain extract. S: ST101-treated brain extract. Animals were approximately 12 months old at sacrifice after 2 months of treatment with ST101 at 5 mg/kg/day.

ADAM10 = experiment: Western blot of ADAM10 in 3xTg-AD mouse brain; assay type: in vivo; settings: 3xTg-AD mice ~12 months old, 5 mg/kg/day, 2 months
Method: as §1, §2

Presenilin 1 = experiment: Western blot of Presenilin 1 in 3xTg-AD mouse brain; assay type: in vivo; settings: 3xTg-AD mice ~12 months old, 5 mg/kg/day, 2 months
Method: as §2

ubiquitylated proteins = experiment: Anti-ubiquitin Western blot of 3xTg-AD mouse brain; assay type: in vivo
Method: Brain extracts from 12-month-old 3xTg-AD mice that had been treated with ST101 (S) at 5/mg/kg/day in drinking water over 2 months were analyzed in Western blots using an anti-ubiquitin antibody (Dako no. Z0448). […] The control (C) samples show a typical high molecular weight “smear” representing a mixture of ubiquitylated proteins.

huntingtin = experiment: Western blot of pS13 huntingtin in 3xTg-AD mouse brain; assay type: in vivo; settings: 3xTg-AD mice 12 months old, 5 mg/kg/day, 2 months; in the majority of cases
Method: In a first pilot experiment to explore the effect of ST101 on proteins that accumulate in neurodegenerative diseases other than AD, brain extracts from ST101-treated 3xTg-AD mice (S) and control mice (C) mice were analyzed by Western blotting with an antibody directed against huntingtin, specifically against a phospho-epitope around serine 13 (pS13 huntingtin). These extracts are from the same mice as those used in Examples 15 and 16.

Aβ1-40 = experiment: Aβ in cynomolgus monkey brain after six-month chronic toxicity study; assay type: in vivo; settings: juvenile cynomolgus monkeys, 10 mg/kg/day by naso-gastric tube, 6 months
Method: Brain samples from cynomolgus monkeys were obtained at the conclusion of a six-month chronic toxicity study. The cynomolgus monkeys used in this study were juveniles of less than 4 years of age. ST101 was administered daily for 6 months by naso-gastric tube at 10 mg/kg/day (n=8 per group). Data was generated from 8 treated and 8 control animals. Levels of Aβ1-40 are shown in FIG. 9, which is a bar graph that depicts the effect of ST 101 on Aβ in brain tissue from cynomolgus monkeys. FIG. 9 depicts the amount of levels of Aβ1-40 in monkeys treated with ST 101, relative to control monkeys.

acetylated alpha-tubulin = experiment: Western blot of acetylated alpha-tubulin in cynomolgus monkey hippocampus; assay type: in vivo; settings: cynomolgus monkeys of Example 19, hippocampal brain samples
Text: The effects on tubulin were confirmed in the group of cynomolgus monkeys described in example 19.

proteasome = experiment: Western blot of proteasome subunits in brain extracts; assay type: in vivo, mouse; settings: 12-month-old 3xTg-AD mice, 5 mg/kg/day, 2 months
Method: Brain extracts from 12-month-old 3xTg-AD mice (described in Example 15) that had been treated with ST101 at 5/mg/kg/day in drinking water over 2 months were analyzed in Western blots using an anti-proteasome alpha-subunit antibody.

SAM-P8 mice = settings: vs control mice, cited from earlier work
[1] = tested on: long-term potentiation (LTP); settings: cited from earlier work

O=C1N=C2C=CC=CN2C12Cc1ccccc1C2 [ST101, spiro(imidazo[1,2-a]pyridin-2(3H)-one-3,2′-indan)]
Morris Water Maze latency during training (3xTg-AD mice; 3xTg-AD mice ~1 year old, 5 mg/kg/day in drinking water, successive days of 7-day training, vs controls): greater reductions in latency | Morris Water Maze crosses over former platform location, retention testing (3xTg-AD mice; 24 hours after final training): increases in crosses | Morris Water Maze latency, retention testing (3xTg-AD mice; 24 hours after final training): reductions in latency | Morris Water Maze crosses over former platform location, retention testing (3xTg-AD mice; 72 hours after final training): increases in crosses | Morris Water Maze latency, retention testing (3xTg-AD mice; 72 hours after final training): reductions in latency | sAPP-beta (sAPP-beta): concomitant reduction | BACE protein level (BACE1): profound reduction | Pro-BACE protein level (BACE1): not significantly affected | ADAM-10 protein level (ADAM10): not significantly affected | pro-ADAM10 protein level (ADAM10): profound reduction | Presenilin 1 level (Presenilin 1): did not show significant changes | ubiquitylated proteins (ubiquitylated proteins; 3xTg-AD mice 12 months old, 5 mg/kg/day in drinking water, 2 months): profound reduction | monomeric ubiquitin concentrations (ubiquitylated proteins; 3xTg-AD mice 12 months old, 5 mg/kg/day, 2 months, data not shown): largely unaffected | ubiquitylated proteins (ubiquitylated proteins; 3xTg-AD mice 14.5 months old, 5 mg/kg/day, ~2.5 months): significant reduction | huntingtin protein levels (pS13 huntingtin) (huntingtin): significantly reduced | Aβ1-40 levels in brain (Aβ1-40): reduction of Aβ1-40 in animals treated with ST101 that did not reach statistical significance | acetylated alpha-tubulin fragments (acetylated alpha-tubulin): reduction | concentration of proteasome alpha subunits (proteasome): No difference is apparent | high molecular weight bands reactive with proteasome alpha-subunit antibody (proteasome): clear decrease | proteasome subunit beta 2i (proteasome): did not reveal changes | proteasome subunit beta 5i (proteasome): did not reveal changes | senescence scores (SAM-P8 mice; 16 weeks of treatment): significant improvement | senescence scores (SAM-P8 mice; 32 weeks of treatment): significant improvement | long-term potentiation (LTP) [1]: efficacy in increasing long-term potentiation (LTP)
